The values that follow are results of earlier work, collected in patent US20120061267A1, “MediTowel Anti-Fungal Wipe” (priority 2010, published 2012).

Molecules are shown by their SMILES. Structures can show the parent of a compound that is named as a salt.

The subject of data set [1] is Trichophyton mentagrophytes. The conditions noted are these: at a low concentration.
In another data set the test system is squalene epoxidase. The conditions noted are these: in the cells of fungi.

With `CN(C/C=C/C#CC(C)(C)C)Cc1cccc2ccccc12` [Terbinafine hydrochloride], in data set [1], the “fungicidal effect on sterilizing germinated conidium” value is “fungicidal effect”. In the data set with squalene epoxidase, the “inhibition of squalene epoxidase” value is reported as “selectively inhibits”.
